Assay results: PubChem BioAssay AID270 (DTP/NCI, 2004)
Results filed as inconclusive are left out.

Tested on: BDF1 mice, s.c. Lewis lung carcinoma, T/C %
Assay: NCI In Vivo Anticancer Drug Screen. Data for tumor model Lewis Lung Carcinoma (subcutaneous) in B6D2F1 (BDF1) mice
Outline: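 The value reflects a ratio in which the treated cohort's survival time or tumour size is compared against mice receiving only vehicle.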

[1] = endpoint: median survival time, dose: 9.4 mg/kg/injection, schedule: Q01DX009 (ip), vehicle: Klucel (hydroxypropylcellulose) (HPC), higher = longer survival
[2] = endpoint: mean tumor weight, dose: 133.0 mg/kg/injection, schedule: Q01DX011 (ip), vehicle: other, higher = larger tumour
[3] = endpoint: mean tumor weight, dose: 200.0 mg/kg/injection, schedule: Q01DX011 (ip), vehicle: other, higher = larger tumour
[4] = endpoint: median survival time, dose: 0.5 mg/kg/injection, schedule: Q01DX009 (ip), vehicle: Klucel (hydroxypropylcellulose) (HPC), higher = longer survival
[5] = endpoint: median survival time, dose: 1.0 mg/kg/injection, schedule: Q01DX009 (ip), vehicle: Klucel (hydroxypropylcellulose) (HPC), higher = longer survival

With `CCC1NC(=O)C(NC(=O)c2ncccc2O)C(C)OC(=O)C(c2ccccc2)NC(=O)C2CC(=O)CCN2C(=O)C(Cc2ccccc2)N(C)C(=O)C2CCCN2C1=O` (configuration not stated) (tested in a mixture with another compound) the T/C [1] was 102 % of control, the T/C (endpoint: median survival time, dose: 18.75 mg/kg/injection, schedule: Q01DX009 (ip), vehicle: Klucel (hydroxypropylcellulose) (HPC), higher = longer survival) was 87 % of control and the T/C (endpoint: median survival time, dose: 37.5 mg/kg/injection, schedule: Q01DX009 (ip), vehicle: Klucel (hydroxypropylcellulose) (HPC), higher = longer survival) was 94 % of control.

For `CN(C)CC(C(=O)c1ccc(Br)cc1)C(Br)c1ccccc1` (configuration not stated), the T/C (endpoint: median survival time, dose: 5.0 mg/kg/injection, schedule: Q01DX009 (ip), vehicle: saline, higher = longer survival) was 107 % of control, the T/C (endpoint: median survival time, dose: 10.0 mg/kg/injection, schedule: Q01DX009 (ip), vehicle: saline, higher = longer survival) was 100 % of control and the T/C (endpoint: median survival time, dose: 40.0 mg/kg/injection, schedule: Q01DX009 (ip), vehicle: saline, higher = longer survival) was 119 % of control.

With `CS(=O)(=O)c1ccccc1` the T/C (endpoint: mean tumor weight, dose: 58.0 mg/kg/injection, schedule: Q01DX011 (ip), vehicle: other, higher = larger tumour) was 99 % of control, the T/C (endpoint: mean tumor weight, dose: 88.0 mg/kg/injection, schedule: Q01DX011 (ip), vehicle: other, higher = larger tumour) was 103 % of control and the T/C [2] was 83 % of control. The T/C [3] was 79 % of control, the T/C (endpoint: mean tumor weight, dose: 250.0 mg/kg/injection, schedule: Q01DX011 (ip), vehicle: other, higher = larger tumour) was 77 % of control and the T/C (endpoint: mean tumor weight, dose: 500.0 mg/kg/injection, schedule: Q01DX011 (ip), vehicle: other, higher = larger tumour) was 80 % of control. The T/C (endpoint: mean tumor weight, dose: 750.0 mg/kg/injection, schedule: Q01DX011 (ip), vehicle: other, higher = larger tumour) was 76 % of control and the T/C (endpoint: mean tumor weight, dose: 1000.0 mg/kg/injection, schedule: Q01DX011 (ip), vehicle: other, higher = larger tumour) was 93 % of control.

With `O=P(Oc1ccccc1)(Oc1ccccc1)c1ccccc1` the T/C [2] was 75 % of control and the T/C [3] was 91 % of control.

`CC(NC(=O)C1(N)CCCC1)C(=O)O` (configuration not stated) was tested, and the T/C (endpoint: mean tumor weight, dose: 6.0 mg/kg/injection, schedule: Q01DX011 (ip), vehicle: carboxymethylcellulose (CMC), higher = larger tumour) was 59 % of control and the T/C (endpoint: mean tumor weight, dose: 25.0 mg/kg/injection, schedule: Q01DX011 (ip), vehicle: carboxymethylcellulose (CMC), higher = larger tumour) was 60 % of control.

For `COc1cc(C(=O)OC2CC34CCNC35CC(OC5(OC)C2O)c2cc3c(cc24)OCO3)ccc1O` (configuration not stated), the T/C (endpoint: mean tumor weight, dose: 0.25 mg/kg/injection, schedule: Q01DX011 (ip), vehicle: carboxymethylcellulose (CMC), higher = larger tumour) was 41 % of control, the T/C (endpoint: mean tumor weight, dose: 0.5 mg/kg/injection, schedule: Q01DX011 (ip), vehicle: carboxymethylcellulose (CMC), higher = larger tumour) was 50 % of control and the T/C (endpoint: mean tumor weight, dose: 1.0 mg/kg/injection, schedule: Q01DX011 (ip), vehicle: carboxymethylcellulose (CMC), higher = larger tumour) was 87 % of control.

In the case of `Nc1nc(=S)c2[nH]cnc2[nH]1`, the T/C [4] is reported as 108 % of control, the T/C [5] is reported as 117 % of control and the T/C (endpoint: median tumor weight (est.), dose: 0.67 mg/kg/injection, schedule: Q01DX011 (ip), vehicle: alkali diluted with saline, higher = larger tumour) is reported as 80 % of control. For the same compound, the T/C (endpoint: median tumor weight (est.), dose: 1.0 mg/kg/injection, schedule: Q01DX011 (ip), vehicle: alkali diluted with saline, higher = larger tumour) was 24 % of control.

For `Cc1c2cc3c(c1O)C(=O)CC(O3)c1ccc(O)c(c1)-c1ccc(O)c(c1)C(=O)OCC1OC(O2)C(O)C(O)C1O` (configuration not stated), the T/C (endpoint: median survival time, dose: 0.13 mg/kg/injection, schedule: Q01DX009 (ip), vehicle: Klucel (hydroxypropylcellulose) (HPC), higher = longer survival) was 112 % of control, the T/C (endpoint: median survival time, dose: 0.25 mg/kg/injection, schedule: Q01DX009 (ip), vehicle: Klucel (hydroxypropylcellulose) (HPC), higher = longer survival) was 102 % of control and the T/C [4] was 100 % of control. For the same compound, the T/C [5] was 101 % of control.

In the case of `O=NN(CCCl)C(=O)Nc1cc2c3ccccc3ccc2c2ccccc12`, the T/C (endpoint: median survival time, dose: 3.12 mg/kg/injection, schedule: Q01DX009 (ip), vehicle: Klucel (hydroxypropylcellulose) (HPC), higher = longer survival) is reported as 95 % of control, the T/C (endpoint: median survival time, dose: 6.25 mg/kg/injection, schedule: Q01DX009 (ip), vehicle: Klucel (hydroxypropylcellulose) (HPC), higher = longer survival) is reported as 100 % of control and the T/C (endpoint: median survival time, dose: 12.5 mg/kg/injection, schedule: Q01DX009 (ip), vehicle: Klucel (hydroxypropylcellulose) (HPC), higher = longer survival) is reported as 96 % of control.

For `O=NN(CCCl)C(=O)Nc1ccc(Br)cc1`, the T/C (endpoint: median survival time, dose: 1.25 mg/kg/injection, schedule: Q01DX009 (ip), vehicle: Klucel (hydroxypropylcellulose) (HPC), higher = longer survival) was 97 % of control, the T/C (endpoint: median survival time, dose: 2.5 mg/kg/injection, schedule: Q01DX009 (ip), vehicle: Klucel (hydroxypropylcellulose) (HPC), higher = longer survival) was 101 % of control and the T/C (endpoint: median survival time, dose: 5.0 mg/kg/injection, schedule: Q01DX009 (ip), vehicle: Klucel (hydroxypropylcellulose) (HPC), higher = longer survival) was 88 % of control. The T/C [1] was 108 % of control and the T/C (endpoint: median survival time, dose: 10.0 mg/kg/injection, schedule: Q01DX009 (ip), vehicle: Klucel (hydroxypropylcellulose) (HPC), higher = longer survival) was 102 % of control.
